From US20240197869A1, “HYPERACTIVATORS OF MAMMALIAN DENDRITIC CELLS” (Corner Therapeutics, Inc., priority 2021, published 2024) come the findings set out here.

The test system of one data set is non-human primate PBMCs. The data set can be described thus: Cytokine secretion by non-human primate PBMCs (LegendPlex). In kind it is cell-based, cynomolgus macaques. Here is the method:
Non-human primate PBMC hyperactivation. Whole blood from cynomolgus macaques was diluted with an equal volume of PBS. A solution of 90% Ficoll-Paque PLUS and 10% RPMI was made, and diluted whole blood was overlayed on top of the diluted Ficoll. Cells were centrifuged at 1000 rcf for 30 minutes at room temperature with no brakes. The buffy coat layer was collected and washed twice with PBS. If red blood cell contamination was present, cells were incubated in ACK lysis buffer for 2 minutes before being washed with PBS to remove lysed red blood cells.
Isolated PBMC were plated at 1×10^6 cells/well and cultured with or without hyperactivating stimuli. After 2 days incubation, cells were assessed for viability, and cell culture supernatant was used to measure cytokine output. Commercially available kits such as Biolegend LegendPlex kits were used as directed by manufacturer's protocol to quantify cytokines of interest.
PBMC were obtained from 13 cynomolgus macaques. Each activation condition was tested in triplicate, and the mean value of the triplicate is graphed for the animal sample. Repeated measures one-way ANOVA was used to test for statistical significance followed by Dunnett's multiple comparisons test.

In the next data set the test system is human moDC. Put plainly: Viability of human moDC with surfactant formulations of 22:0 Lyso PC. In kind it is cell-based. As to conditions: solvent evaporation method with KP407, filtered, target 82.5 uM + R848. Here is the method: Formulation of 22:0 Lyso PC with poloxamers. […] 22:0 Lyso PC was resuspended in the surfactant solution and agitated at 4° C. for an hour. Solutions were then brought to room temperature to form micelles. Using 10× concentrated PBS, salts were added to the solution to stabilize molecular interactions and provide physiologically relevant osmolarity. Lipid solutions were either left unfiltered or filtered through a pore size of 0.45 um to remove insoluble lipid flakes. Lipids were further diluted and added onto human moDC cell cultures along with 1 ug/mL R848. Targeted lipid concentrations were based on the scenario where the lipid is fully bio-available prior to filtration. However, filtration of insoluble lipid reduces the bio-available supply of lipid. Thus, IL-1beta as a measure of hyperactivity can be used as an indicator of 22:0 Lyso PC incorporation into micelles and thus into solution. One day after hyperactivation, cell culture supernatants are collected to measure cytokine secretion, and cells are used to measure viability via Cell Titer-Glo.
Salts are added to the solution to stabilize the molecular interactions and bring the solution to a physiologically relevant osmolarity. The solutions are then either left unfiltered or filtered through a pore size of 0.45 um to remove insoluble lipid flakes or particle aggregates. […]

Data set [1] can be described thus: Solubility of 22:0 Lyso PC (observation). It counts as physicochemical.
The test system of data set [2] is murine, FLT3L-differentiated DC. Put plainly: Cytokine secretion by murine FLT3L-differentiated BMDC (ELISA). In kind it is cell-based, mouse. As to the method: Murine FLT3L-differentiated, bone marrow-derived DC (BMDC) generation. Leg femur and tibia were removed from mice, cut with scissors and flushed into sterile tubes. Bone marrow suspension was treated with ACK for 1 minute, then passed through a 40 um cell strainer. Cells were counted and resuspended in media consisting of complete IMDM containing 10% FBS, penicillin and streptomycin, and supplements of L-glutamine and sodium pyruvate (I10). Cells were then plated at 5E6 bone marrow cells per well in a P12 plate. Recombinant mouse FLT3L (Miltenyi) was added to cultures at 200 ng/mL. Differentiated cells were used for subsequent assays on day 9. The efficiency of differentiation was monitored by flow cytometry using BD Symphony A3, and CD11c+MHC-II+ cells were routinely above 80% of living cells. For each experiment, five mice were used to collect BM and to generate DCs.
Murine FLT3L-differentiated BMDC (FLT3L-BMDC) hyperactivation. BMDCs were washed with PBS and re-plated in FLT3L-containing 110 at a concentration of 1.5×10^5 cells/well. Stimuli were added to cultures at indicated concentrations for a final volume of 200 uL/well. Twenty-four hours post-stimulation, cell culture supernatant was collected after centrifugation and stored at −20° C. to measure cytokine secretion. IL-1b, IL-6, IL-12p40, and TNF-alpha ELISA were performed using eBioscience Ready-SET-Go! (now ThermoFisher) ELISA kits according to the manufacturer's protocols. Cell viability was measured using Promega's Cell Titer-Glo reagent kits.
Background: In an ELISA, binding on a coated surface is turned into a signal by an enzyme label.

In data set [3] the test system is B16-F10 mouse melanoma tumor. Put plainly: Therapeutic whole tumor lysate vaccine in B16F10 tumor-bearing mice. In kind it is in vivo, mouse (C57BL/6J). As to the method: Ex vivo whole tumor lysate preparation. Syngeneic whole tumor lysates (WTL) were prepared from tumors explants of unimmunized tumor-bearing mice. Briefly, tumors from unimmunized mice bearing a tumor 10-12 mm of size were mechanically disaggregated using gentle MACS dissociator (Miltenyi Biotec) and enzymatically digested using the tumor Dissociation Kit (Miltenyi Biotec) following the manufacturer's protocol. After digestion, tumor cell suspensions were washed with PBS and passed through 70 um and then 30 um filters. Single cell suspension was depleted of CD45+ cells using anti-CD45 TILs microbeads (Miltenyi Biotec). Tumor cells were then counted and resuspended at 1×10^7 cells/ml then lysed by 3-4 cycles of freeze-thawing. The lysed cells were further disrupted by repeatedly passing the material through an 18G, then 21G, and finally 25G needles. Lysate was filtered again through 70 um and 30 um cell strainers and stored in aliquots at −80° C. until use. WTL were used for immunotherapy at a concentration equivalent to 5.75E5 tumor cells per mouse.
Immunotherapeutic immunization and tumor challenges. For immunizations in the context of an immunotherapeutic approach, C57BL/6J were injected on the left flank with 5×10^4 B16F10 cells. […] Mice received two boost injections at 7-day intervals.
Quantification and statistical analysis. In in vivo studies, n refers to the number of animals per condition from one or two independent experiments. Statistical differences were calculated by using unpaired two-tailed Student's t test, or one-way ANOVA with Tukey post-test. Dependent samples were analyzed with paired t tests. Statistical significance for experiments with more than two groups was tested with two-way ANOVA with Tukey multiple comparison test correction. All experiments were analyzed using Prism 7 (GraphPad Software). Graphical data was shown as mean values with error bars indicating the SD or SEM. P values of <0.05 (*), <0.01 (**) or <0.001(***);%0.0001 (****) indicated significant differences between groups.

Where [4] appears, read: 82.5 uM lipid + R848 vs R848 alone, 2 days.
The mark [5] stands for this setting: R848 + 41 uM lipid in PBS or KP407, 24 h.
The mark [6] stands for this setting: WTL 80 ug + R848 100 ug + 65 ug lipid in […]% KP407, 2 boosts every 7 days.

SMILES strings stand for the structures.

On to `CCCCCCCCCCCCCCCCCCCCCC(=O)OC[C@@H](O)COP(=O)([O-])OCC[N+](C)(C)C` [22:0 LYSO PC, 1-behenoyl-2-hydroxy-sn-glycero-3-phosphocholine], for which the “cytokine fold changes relative to R848 alone (in words)” value with non-human primate PBMCs (41.3 uM lipid + R848) is on record as “not as markedly increased”. For the same compound, the “IL-1beta output (in words)” value with non-human primate PBMCs (82.5 uM lipid + R848 1 μg/mL vs R848 alone, 2 days) was “increased the IL-1beta output”. Also, in the data set on non-human primate PBMCs (setting [4]), the “IFN-beta secretion (in words)” value is on record as “increased”, the “IFN-gamma secretion (in words)” value is listed as “significantly increased”, the “IL-8 secretion (in words)” value was “increased” and the “IL-17a secretion (in words)” value is listed as “increased”. In the data set with non-human primate PBMCs (setting [4]), the “IL-23 secretion (in words)” value is given as “increased”. In addition, the “reduction of cell viability” value in the data set with human moDC was “approximately 25%”. For the same compound, in data set [1], the “solubility in aqueous solution (in words)” value is reported as “mostly insoluble in aqueous solution”. Besides, the “solubility in alcohols (in words)” value in data set [1] (ethanol or methanol) is “soluble in ethanol or methanol”. In addition, the “IL-1beta secretion (in words)” value in data set [2] (22:0 Lyso PC without R848) was “failed to induce IL-1beta secretion”. Further, in data set [2] (setting [5]), the “IL-6 secretion (in words)” value is “high TNF-alpha and IL-6 secretion”; the “TNF-alpha secretion (in words)” value is “high TNF-alpha and IL-6 secretion”. Besides, in data set [2] (R848 + lipid in KP407), the “TNF-alpha secretion (in words)” value is “small boost in TNF-alpha secretion”. Besides, the “lipid concentration superior in supporting IL-1beta secretion while retaining cell viability” value in data set [2] (formulated in KP407 + R848) was found to be 41 µM. Further, in data set [2] (lipid formulated in 5% KP407 + R848 1 ug/mL, 24 h), the “IL-1beta secretion (in words)” value is recorded as “induced IL-1beta secretion in a dose dependent manner”. Moreover, in data set [2] (lipid resuspended in PBS, different concentrations, + R848 1 ug/mL, 24 h), the “IL-1beta secretion (in words)” value is reported as “unable to induce IL-1beta secretion”. In data set [3] (setting [6]), the “survival of tumor-bearing mice (in words)” value is “survived longer” and the “tumor growth kinetics (in words)” value is reported as “delayed tumor growth kinetics”. The “benefit of vaccination (in words)” value in data set [3] (tumor lysate + R848 + lipid in PBS) is on record as “No significant benefit”.
